Measurements reported in US20260021098A1, “METHODS OF TREATMENT OF JAK INHIBITION RESPONSIVE CONDITIONS WITH DEUTERATED JAK INHIBITORS” (Sun Pharmaceutical Industries, Inc., priority 2024, published 2026).

Assay: Drug-drug interaction study of Compound (I) and itraconazole, plasma concentration data
Type: in vivo, human
Settings: 12 mg Compound (I) with 200 mg itraconazole (Test), healthy volunteers

SMILES: [2H]C1([2H])C([C@@H](CC#N)n2cc(-c3ncnc4[nH]ccc34)cn2)C([2H])([2H])C([2H])([2H])C1([2H])[2H] [Compound (I), (R)-3-(4-(7H-pyrrolo[2,3-d]pyrimidin-4-yl)-1H-pyrazol-1-yl)-3-(cyclopentyl-2,2,3,3,4,4,5,5-d8) propanenitrile]
- t1/2: 4.62 h
